The text below walks through data of ChEMBL document CHEMBL1135815, “Design, synthesis, and pharmacological evaluation of new farnesyl protein transferase inhibitors” (J Med Chem, 2002).

For experiment [1], the target named is Protein farnesyltransferase (Homo sapiens, UniProt P49354+P49356). Description: Inhibition of Farnesyltransferase catalyzed transfer of the FPP moiety to dansyl-GCVLS. Format: protein-complex assay.
Experiment [2] addresses Geranylgeranyl transferase type I (Homo sapiens, UniProt P49354+P53609). Put plainly: Inhibition of Geranylgeranyl transferase type I (GGPT I) catalyzed transfer of GGPP to dansyl-GCVLL. The class given is protein-complex assay.

One may read the IC50 as the point on the concentration scale where inhibition reaches its midpoint. Lower therefore signals greater potency in that assay.

As to `COC(=O)[C@H](CCSC)N(C(=O)c1ccccc1)C1CCNCC1`, the IC50 in experiment [1] is > 100 µM.

As for `CSCCC(NC(=O)[C@H](Cc1ccccc1)NCC[C@@H](C)CNC[C@H](N)CSC)C(=O)O` (stereo partly specified), the IC50 was found to be 0.034 µM in experiment [1] and 5.1 µM in experiment [2].

As for `COC(=O)[C@H](CCSC)N(C(=O)c1ccccc1)C1CCN(C(=O)[C@H]2CSCN2)CC1`, in experiment [1], the IC50 is > 100 µM.

Consider `COC(=O)[C@H](CCSC)N(C(=O)c1ccccc1)C1CCN(C(=O)[C@@H]2CSCN2)CC1`, for which the values for the IC50 in experiment [1] and in experiment [2] were 2.14 µM and > 100 µM, respectively.

Consider `COC(=O)[C@H](CCSC)N(C(=O)c1ccccc1)C1CCN(C(=O)c2cscn2)CC1`, for which the IC50 in experiment [1] is 52.5 µM; in experiment [2], > 100 µM.

Take `COC(=O)[C@H](CCSC)N(C(=O)c1ccccc1)C1CCN(Cc2cscn2)CC1`: the IC50 is 41.7 µM in experiment [1] and > 100 µM in experiment [2].

Regarding `COC(=O)[C@H](CCSC)N(C(=O)c1ccccc1)C1CCN(C(=O)C(N)CS)CC1` (stereo partly specified), the results for the IC50 in experiment [1] and in experiment [2] were 0.02 µM and > 100 µM, respectively.

For the compound `COC(=O)[C@H](CCSC)N(C(=O)c1ccccc1)C1CCN(Cc2c[nH]cn2)CC1`, the figures for the IC50 in experiment [1] and in experiment [2] were 16.2 µM and > 100 µM, respectively.

With `CSCC[C@H](NC(=O)c1ccc(NC(=O)[C@@H](N)CS)cc1)C(=O)O`, the figures for the IC50 in experiment [1] and in experiment [2] were 0.072 µM and > 100 µM, respectively.
